“Also recorded” adds a separate entry of the source.
What was measured:
GSTP1 promoter alleles = assay: Southern blot analysis of GSTP1 "CpG island" DNA hypermethylation in Hep3B cells treated with 5-aza-dC; format: cell-based, human; settings: Hep3B HCC cells treated in vitro, 72 hours
Method: DNA isolated from Hep3B cells before and after exposure to 5-aza-dC in vitro was assessed for GSTP1 “CpG island” DNA hypermethylation using Southern blot analysis. Purified DNAs were digested first with HindIII and EcoRI and then extensively with the ^5-mC-sensitive restriction endonuclease BssHII. Digested DNAs were then electrophoresed on agarose gels, transferred to Zeta-Probe (DioRad) membranes, and then hybridized with ^32P-labeled GSTP1 cDNA DNA isolated from Hep3B HCC cells and from HCC and adjacent non-neoplastic tissues was also subjected to analysis for GSTP1 “CpG island” DNA hypermethylation using a ^5-mC-sensitive restriction endonuclease-polymerase chain reaction (PCR) strategy that permitted both detection of CpG dinucleotide methylation and simultaneous discrimination of maternal and paternal alleles in informative cases. […] To facilitate detection of the PCR amplification products, the downstream primer was end-labeled with [γ-^32P]ATP (Amersham) using T4 polynucleotide kinase (New England BioLabs). PCR was conducted by incubation at 95° C. for 1 min, 63° C. for 3 min, and 72° C. for 1.5 min, for 30 cycles followed by a final extension at 72° C. for 8 min. […]

[1] = tested on: GSTP1 expression in Tsu-Prl PCA cells; assay: GSTP1 expression in Tsu-Prl PCA cells treated with 5-aza-dC; format: cell-based, human; settings: Tsu-Prl PCA cells (unmethylated GSTP1 promoter alleles), treated as for Hep3B
Excerpt: Assessment of GSTP1 expression.

[2] = tested on: GSTP1 mRNA expression in Hep3B HCC cells; assay: Northern blot analysis of GSTP1 mRNA expression by Hep3B cells treated with 5-aza-dC; settings: for GSTP1 mRNA expression (Northern blot): Hep3B HCC cells treated in vitro, 72 hours

With `Nc1ncn([C@H]2C[C@H](O)[C@@H](CO)O2)c(=O)n1` [5-aza-dC, 5-aza-deoxycytidine] the “GSTP1 "CpG island" / promoter allele methylation (Southern blot, BssHII digestion)” value (GSTP1 promoter alleles) was “appearance of unmethylated GSTP1 promoter alleles”, the “GSTP1 "CpG island" / promoter allele methylation (Southern blot, BssHII digestion)” value (GSTP1 promoter alleles; listed as 5-aza-deoxycytidine) was “reversed GSTP1 “CpG island” hypermethylation” and the “modulation of GSTP1 expression” value [1] was “no modulation of GSTP1 expression was evident”. For the same molecule, the “time at which GSTP1 mRNA expression began to appear” value ([2]; Hep3B HCC cells exposed for as long as 72 hours) was no more than 24 h, the “GSTP1 mRNA expression (Northern blot)” value [2] was “reactivation of GSTP1 mRNA expression; also recorded: appearance of detectable GSTP1 mRNA” and the “GSTP1 mRNA expression (Northern blot)” value ([2]; listed as 5-aza-deoxycytidine) was “restored GSTP1 expression”.

Reference: patent US6709818B1, “Methods of diagnosing and treating hepatic cell proliferative disorders” (The Johns Hopkins University School of Medicine, priority 1999, dated 2004)
